In BindingDB's records for doi:10.1126/science.279.5347.77 (Abbott Laboratories, 1998):

Target: Neuronal acetylcholine receptor subunit alpha-4 (Rattus norvegicus, UniProt P09483)
Sequence (P09483 whole entry): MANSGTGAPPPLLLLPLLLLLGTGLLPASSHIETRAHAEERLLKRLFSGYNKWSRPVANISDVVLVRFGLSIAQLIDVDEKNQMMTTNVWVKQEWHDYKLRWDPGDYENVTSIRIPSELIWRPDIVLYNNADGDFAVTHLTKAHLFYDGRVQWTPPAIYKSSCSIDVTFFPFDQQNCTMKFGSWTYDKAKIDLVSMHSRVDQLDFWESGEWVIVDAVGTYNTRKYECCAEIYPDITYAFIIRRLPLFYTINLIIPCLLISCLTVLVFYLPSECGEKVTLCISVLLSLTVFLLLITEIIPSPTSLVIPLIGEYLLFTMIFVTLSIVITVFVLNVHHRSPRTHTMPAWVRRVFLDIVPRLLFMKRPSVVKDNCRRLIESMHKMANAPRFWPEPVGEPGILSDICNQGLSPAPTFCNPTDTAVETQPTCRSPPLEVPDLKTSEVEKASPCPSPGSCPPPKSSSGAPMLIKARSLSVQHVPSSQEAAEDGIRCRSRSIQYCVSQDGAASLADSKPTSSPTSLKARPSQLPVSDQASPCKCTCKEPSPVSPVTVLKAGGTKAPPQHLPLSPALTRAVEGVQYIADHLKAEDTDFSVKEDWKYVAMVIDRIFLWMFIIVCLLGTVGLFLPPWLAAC

## Clc1ccc(OC[C@@H]2CCN2)cn1
  Ki: 0.03 nM
